# Marks after values point to notes of the source that are not given here.
# Details: pH 2.3
row,Log P,Structure (SMILES)
1,2.98,COC(=O)C(C#N)=C(NCc1ccc(Cl)cc1)c1cccnc1Cl [Compound 336]
2,3.32^[c]; 3.32^[b],CCOC(=O)C(C#N)=C(Nc1ccccc1SC)c1cccnc1OC [Compound 522]

# Same assay, conditions: pH 2.7
row,Structure (SMILES),Log P
1,CCNC(=O)C(C#N)=C(NC(C)C(C)C)c1ccnc(Br)c1F (centres unmarked) [Compound 1323],3.46^[a]
2,CCOC(=O)C(C#N)=C(NC(C(=O)OC)c1ccccc1)c1cccnc1Cl (centres unmarked) [Compound 1195],3.08^[a]
3,C=CCNC(=O)C(C#N)=C(NC(C)C(C)C)c1cn(C)nc1C(F)F (centres unmarked) [Compound 1007],2.9^[a]
4,COC(=O)C(C#N)=C(NC(C)CN(C)C)c1sc(C)nc1C(F)(F)F (centres unmarked) [Compound 630],1.17^[a]
5,CCOC(=O)C(C#N)=C(NC(C)C1CC1)c1cn(C)nc1C(F)F (centres unmarked) [Compound 882],2.88^[a]
6,COC(=O)C(C#N)=C(NC(c1ccccc1)C1CC1)c1cccnc1Cl (centres unmarked) [Compound 398],3.24^[a]
7,CCOC(=O)C(C#N)=C(Nc1ccccc1SC)c1ncc(C(F)(F)F)cc1Cl [Compound 350],4.26^[a]
8,CCOC(=O)C(C#N)=C(NC(c1ccc(N(C)C)cc1)C(F)(F)F)c1cccnc1Cl (racemic) [Compound 1260],3.99^[a]
9,CCOC(=O)C(C#N)=C(NC(C)c1ccc(Cl)cc1Cl)c1cn(C)nc1C(F)F (racemic) [Compound 552],3.96^[a]
10,CCCCCC(C)NC(=C(C#N)C(=O)OCC)c1cccnc1Cl (centres unmarked) [Compound 1188],4.26^[a]
11,CC#CC(C)NC(=C(C#N)C(=O)OCC)c1cccnc1Cl (centres unmarked) [Compound 1198],3.02^[a]
12,COC(=O)C(C#N)=C(NC(C)c1ncc(Br)cc1Cl)c1cccnc1Cl (centres unmarked) [Compound 124],3.24^[a]
13,CCOC(=O)C(C#N)=C(NC(C)C(C)(C)C)c1cccnc1Cl (centres unmarked) [Compound 924],3.6^[a]
14,CCOC(=O)C(C#N)=C(NC(C)COc1ccc(F)cc1)c1cccnc1Cl (centres unmarked) [Compound 1166],3.62^[a]
15,CCOC(=O)C(C#N)=C(NC(C)COc1c(C)cccc1C)c1ccsc1Br (centres unmarked) [Compound 718],4.86^[a]
16,CCCC(C)NC(=C(C#N)C(=O)OCC)c1sc(C)nc1C(F)(F)F (centres unmarked) [Compound 868],3.96^[a]
17,C#CCNC(=C(C#N)C(=O)OCC)c1cn(C)nc1C(F)F [Compound 1128],2.13^[a]
18,CCOC(=O)C(C#N)=C(NC(C)C(=O)NC)c1cnn(C)c1Cl (centres unmarked) [Compound 1488],1.63^[a]

row,Structure (SMILES),Log P
1,CCOC(=O)C(C#N)=C(NC(C)C1CCCC1)c1cccnc1Cl (centres unmarked) [Compound 1606],3.9^[a]
2,CCOCC(C)NC(=C(C#N)C(=O)OC)c1cccnc1Cl (centres unmarked) [Compound 624],2.42^[a]
3,CCOC(=O)C(C#N)=C(NC(C)c1nccs1)c1c(C(F)F)nn(C)c1Cl (racemic) [Compound 234],2.77^[a]
4,CCOC(=O)C(C#N)=C(NC1CC2CCC1C2)c1cccnc1Cl (centres unmarked) [Compound 1081],3.7^[a]
5,CCOC(=O)C(C#N)=C(NC(c1cc2ccccc2s1)C(F)(F)F)c1cn(C)nc1C(F)(F)F (racemic) [Compound 147],4.46^[a]
6,CCOC(=O)C(C#N)=C(NC(C)c1ncc(Br)cc1Cl)c1cccnc1Cl (mixture of isomers) [Compound 287],3.9^[a]
7,CCOC(=O)C(C#N)=C(NC(C(=O)OC)C(C)C)c1ccsc1Br (centres unmarked) [Compound 715],3.48^[a]
8,C=CCOC(=O)C(C#N)=C(NC(C)c1nccs1)c1cn(C)nc1C(F)F (mixture of isomers) [Compound 305],2.59^[a]
9,CCOC(=O)C(C#N)=C(NC(C)c1ccc(Cl)s1)c1cccnc1Cl (mixture of isomers) [Compound 281],3.8^[a]
10,CCOC(=O)C(C#N)=C(NC(C)C(=O)Nc1ccc2ccccc2c1)c1sc(C)nc1C(F)(F)F (racemic) [Compound 676],3.99^[a]
11,CCOC(=O)C(C#N)=C(NCC1(C)COC1)c1cccnc1Cl [Compound 1429],2.11^[a]
12,CCOC(=O)C(C#N)=C(NCc1nc2ccccc2s1)c1cn(C)nc1C(F)F [Compound 191],2.82^[a]
13,C=CCCCC(C=C)NC(=C(C#N)C(=O)OCC)c1conc1C (centres unmarked) [Compound 1020],3.81^[a]
14,CCOC(=O)C(C#N)=C(NC(C)C(F)(F)F)c1cc(Cl)sc1Cl (racemic) [Compound 810],4.11^[a]
15,CCOC(=O)C(C#N)=C(NC(C)C1CC1)c1ccncc1Cl (racemic) [Compound 898],3.03^[a]
16,COC(=O)C(C#N)=C(NC(c1cc2ccccc2s1)C(F)(F)F)c1cn(C)nc1C(F)F (racemic) [Compound 60],3.83^[a]
17,CCOC(=O)C(C#N)=C(NC(C)C(F)(F)F)c1cn(C)nc1C(F)F (racemic) [Compound 1253],2.92^[a]

# Other lines, results leading:
row,Log P,Structure (SMILES)
1,3.27^[a],CCOC(=O)C(C#N)=C(NC(C)c1ccccn1)c1sccc1C(F)(F)F (centres unmarked) [Compound 103]
2,2.35^[a],CCOC(=O)C(C#N)=C(NCC#N)c1sc(C)nc1C(F)(F)F [Compound 790]
3,2.73^[a],COCCNC(=O)C(C#N)=C(NC(C)C(C)C)c1cccnc1Cl (centres unmarked) [Compound 1492]
4,2.23^[a],CCOC(=O)C(C#N)=C(NC(C)Cn1cccn1)c1cccnc1Cl (racemic) [Compound 278]
5,3.21^[a],CCOC(=O)C(C#N)=C(Nc1ccccc1SC)c1conc1C [Compound 363]
6,2.8^[a],COC(=O)C(C#N)=C(NC(C)c1sc(C)nc1C)c1sc(C)nc1C(F)(F)F (racemic) [Compound 179]
7,3.29^[a],COC(=O)C(C#N)=C(NC(C(=O)OC)C(C)C)c1sc(C)nc1C(F)(F)F (centres unmarked) [Compound 667]
8,4.41^[a],CCCCCC(C)NC(=C(C#N)C(=O)OC)c1sc(C)nc1C(F)(F)F (centres unmarked) [Compound 850]
9,2.56^[a],CCOC(=O)C(C#N)=C(NCc1ccccn1)c1sccc1Cl [Compound 159]
10,2.84^[a],CCOC(=O)C(C#N)=C(NC(C)c1csc(C)n1)c1cccnc1Cl (centres unmarked) [Compound 1524]
11,3.19^[a],CCOC(=O)C(C#N)=C(NC(C)C(C)C)c1c(C)nn(C)c1F (centres unmarked) [Compound 936]
12,2.02^[a],CCOC(=O)C(C#N)=C(NCc1ccccn1)c1c(C)nn(C)c1Cl [Compound 87]
13,3^[a],CCOC(=O)C(C#N)=C(NCc1ncccc1C(F)(F)F)c1cccnc1Cl [Compound 1554]
14,3.42^[a],C#CC(C)(C)NC(=C(C#N)C(=O)OCC)c1ccsc1Br [Compound 1029]
15,1.11^[a],CCOC(=O)/C(C#N)=C(\NCC(C)N)c1sc(C)nc1C(F)(F)F (centres unmarked) [Compound 643]
16,3.69^[a],CCOC(=O)C(C#N)=C(NC(C)(C)C#Cc1ccc(C#N)cc1)c1cn(C)nc1C(F)F [Compound 1238]
17,3.81^[a],CCOC(=O)C(C#N)=C(NC(C)C(C)C)c1ccnc(Cl)c1F (centres unmarked) [Compound 1311]
18,2.9^[a],COC(=O)C(C#N)=C(NC(C)(C)C(=O)OC)c1sc(C)nc1C(F)(F)F [Compound 695]

row,Log P,Structure (SMILES)
1,1.63^[a],CCOC(=O)C(C#N)=C(NC(C)CN(C)C)c1sccc1C(F)(F)F (centres unmarked) [Compound 608]
2,2.57^[a],CCOC(=O)C(C#N)=C(NCC(C)c1nccs1)c1cccnc1Cl (centres unmarked) [Compound 331]
3,1.37^[a],CC(NC(=C(C#N)C(=O)O)c1cccnc1Cl)c1ccccn1 (centres unmarked) [Compound 1571]
4,1.13^[a],CCOC(=O)C(C#N)=C(NC(C)CN(C)C)c1cn(C)nc1C(F)F (racemic) [Compound 578]
5,2.42^[a],CCOC(=O)C(C#N)=C(NC(COC)COC)c1cn(C)nc1C(F)F [Compound 1341]
6,4.1^[a],CCOC(=O)C(C#N)=C(NC(C)C(C)C)c1ccsc1Br (centres unmarked) [Compound 945]
7,3.89^[a],C=CC(COCc1ccccc1)NC(=C(C#N)C(=O)OC)c1sc(C)nc1C(F)(F)F (centres unmarked) [Compound 690]
8,3.2^[a],CCOC(=O)C(C#N)=C(NC(C)c1nccs1)c1c(C(F)(F)F)nn(C)c1Cl (centres unmarked) [Compound 311]
9,3.94^[a],CCCCCC(C)NC(=C(C#N)C(=O)OCC)c1cn(C)nc1C(F)F (centres unmarked) [Compound 853]
10,3.69^[a],CCOC(=O)C(C#N)=C(NC(C#N)c1cccc(Cl)c1Cl)c1cccnc1Cl (racemic) [Compound 1257]
11,3.17^[a],CCOC(=O)C(C#N)=C(Nc1ccc(N(C)C)cc1)c1cccnc1Cl [Compound 1264]
12,4.01^[a],CCOC(=O)C(C#N)=C(NCc1ccccc1SC)c1sccc1Br [Compound 458]
13,3.37^[a],COC(=O)C(C#N)=C(NC(C)c1ccc(C(F)(F)F)cc1)c1cccnc1Cl (centres unmarked) [Compound 395]
14,0.82^[a],COC(=O)C(C#N)=C(NC(C)c1cccnc1)c1cccnc1Cl (centres unmarked) [Compound 109]
15,3.15^[a],CCOC(=O)C(C#N)=C(Nc1ccccc1SC)c1cn(C)nc1C(C)F (racemic) [Compound 521]
16,3.06^[a],CCOC(=O)C(C#N)=C(Nc1ccccc1SC)c1cn(C)nc1OC [Compound 507]
17,2.63^[a],COC(=O)C(C#N)=C(NCc1nccs1)c1ncc(C(F)(F)F)cc1Cl [Compound 83]

# Same assay, conditions: pH 7.5
row,Structure (SMILES),Log P
1,COC(=O)C(C#N)=C(NC(C)C(C)C)c1cccnc1Cl (centres unmarked) [Compound 932],2.85
2,CCOC(=O)C(C#N)=C(NC(C)C=NO)c1cccnc1Cl (centres unmarked) [Compound 1443],1.78
3,CCOC(=O)C(C#N)=C(NC(C)C(N)=S)c1cccnc1Cl (centres unmarked) [Compound 708],1.87
4,CCOC(=O)C(C#N)=C(NC(C)C1CC1)c1ccc(Cl)nc1Cl (mixture of isomers) [Compound 914],3.54
5,CCOC(=O)C(C#N)=C(NC(C)C(C)C)c1ccc(C)nc1Cl (centres unmarked) [Compound 950],3.63
6,CCOC(=O)C(C#N)=C(NC(C)C1CC1)c1cccnc1Cl (mixture of isomers) [Compound 913],2.9
7,CCOC(=O)C(C#N)=C(NC(C)C(C)C)c1cccnc1Cl (centres unmarked) [Compound 934],3.21
8,COC(=O)C(C#N)=C(NCc1ccc(Cl)cc1)c1cccnc1Cl [Compound 336],2.96
9,CCOC(=O)C(C#N)=C(NC1CCCCC1O)c1cccnc1Cl (mixture of isomers) [Compound 1064],2.27
10,COC(=O)C(C#N)=C(NC(C)c1nc2ccccc2s1)c1cccnc1Cl (centres unmarked) [Compound 15],2.95
11,CCOC(=O)C(C#N)=C(Nc1ccccc1SC)c1cccnc1OC [Compound 522],3.32^[c]; 3.32^[b]

# — patent US8476197B2, “Aminopropenoates as fungicides” (priority 2009, dated 2013)
